Experimental data: patent publication US20230295200A1 (REGENTS OF THE UNIVERSITY OF MICHIGAN, priority 2022, published 2023)

Experiments:
[1] = target: T1, STAT6 protein (Homo sapiens, UniProt P42226); assay: Fluorescence polarization (FP) binding assay, STAT6; conditions: FP competition, 5 nM fluorescein-labeled tracer, 200 nM protein, PBS pH7.4; read-out: Binding STAT6
T1 sequence (P42226 1-847): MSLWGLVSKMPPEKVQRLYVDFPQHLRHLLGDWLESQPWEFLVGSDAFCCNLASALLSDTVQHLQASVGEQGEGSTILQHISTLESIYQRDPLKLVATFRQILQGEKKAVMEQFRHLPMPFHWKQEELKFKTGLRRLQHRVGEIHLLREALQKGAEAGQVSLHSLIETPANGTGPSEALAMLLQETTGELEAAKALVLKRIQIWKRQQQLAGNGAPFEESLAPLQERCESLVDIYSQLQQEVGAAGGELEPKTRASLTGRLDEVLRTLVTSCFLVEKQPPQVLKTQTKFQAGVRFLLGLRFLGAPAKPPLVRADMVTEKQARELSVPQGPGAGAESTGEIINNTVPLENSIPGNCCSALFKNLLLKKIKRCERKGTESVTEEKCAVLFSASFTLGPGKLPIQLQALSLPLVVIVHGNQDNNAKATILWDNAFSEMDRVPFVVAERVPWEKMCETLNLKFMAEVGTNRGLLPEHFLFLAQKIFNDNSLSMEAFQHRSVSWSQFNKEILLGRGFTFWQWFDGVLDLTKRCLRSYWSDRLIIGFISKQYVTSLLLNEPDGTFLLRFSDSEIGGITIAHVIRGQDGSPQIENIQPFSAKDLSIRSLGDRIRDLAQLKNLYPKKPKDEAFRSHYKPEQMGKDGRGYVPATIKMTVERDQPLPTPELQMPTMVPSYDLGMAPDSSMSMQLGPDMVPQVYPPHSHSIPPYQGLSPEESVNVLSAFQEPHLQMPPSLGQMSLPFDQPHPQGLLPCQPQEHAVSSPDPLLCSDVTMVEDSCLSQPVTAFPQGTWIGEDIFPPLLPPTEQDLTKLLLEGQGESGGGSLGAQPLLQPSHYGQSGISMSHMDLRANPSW
How it was run: (§1)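 Fluorescein-labelled tracer (5 nM) with 200 nM STAT5 and/or STAT6 protein in PBS pH 7.4, 0.01% BGG, 0.01% Tween-20, 2 mM DTT. Mixed 15 min, then equilibrated 1 h at room temperature; read by fluorescence polarization, constants from nonlinear curve fitting.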

[2] = target: T2, STAT5A (Homo sapiens, UniProt P42229); assay: Fluorescence polarization (FP) binding assay, STAT5A; conditions: FP competition, 5 nM fluorescein-labeled tracer, 200 nM protein, PBS pH7.4
T2 sequence (P42229 1-794): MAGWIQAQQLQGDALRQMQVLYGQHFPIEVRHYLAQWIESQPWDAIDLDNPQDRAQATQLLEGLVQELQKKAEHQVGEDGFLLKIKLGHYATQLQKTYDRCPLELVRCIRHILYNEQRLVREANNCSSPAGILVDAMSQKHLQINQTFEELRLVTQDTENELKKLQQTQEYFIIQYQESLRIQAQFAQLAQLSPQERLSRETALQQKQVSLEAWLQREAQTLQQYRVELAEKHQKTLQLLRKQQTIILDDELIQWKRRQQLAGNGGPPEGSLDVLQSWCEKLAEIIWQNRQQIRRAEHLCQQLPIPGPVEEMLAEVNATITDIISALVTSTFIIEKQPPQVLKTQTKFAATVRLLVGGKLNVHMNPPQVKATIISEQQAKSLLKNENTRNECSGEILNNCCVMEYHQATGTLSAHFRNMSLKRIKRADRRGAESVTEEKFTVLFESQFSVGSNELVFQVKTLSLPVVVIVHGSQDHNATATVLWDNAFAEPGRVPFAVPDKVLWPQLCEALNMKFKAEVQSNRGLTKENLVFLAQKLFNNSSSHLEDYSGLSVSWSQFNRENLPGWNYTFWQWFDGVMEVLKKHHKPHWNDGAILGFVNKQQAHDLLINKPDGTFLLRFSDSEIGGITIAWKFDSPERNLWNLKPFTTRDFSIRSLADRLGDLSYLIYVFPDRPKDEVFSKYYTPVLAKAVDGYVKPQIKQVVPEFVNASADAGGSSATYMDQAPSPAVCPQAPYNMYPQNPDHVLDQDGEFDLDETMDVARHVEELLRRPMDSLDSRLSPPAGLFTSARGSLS
How it was run: as §1

Compound | Ki [1] [nM] | Ki [2] [µM]
CC(C)(C)[C@H](NC(=O)c1cc2cc(C(F)(F)P(=O)(O)O)ccc2s1)C(=O)N1CCCCC[C@H]1C(=O)N1CC[C@H](c2ccccc2)C1 [Compound 185, ((2-(((S)-3,3-dimethyl-1-oxo-1-((S)-2-((R)-3-phenylpyrrolidine-1-carbonyl)azepan-1-yl)butan-2-yl)carbamoyl)benzo[b]thiophen-5-yl)difluoromethyl)phosphonic acid] | 1000 to 10000 | 1 to 10
CC(C)(C)[C@H](NC(=O)c1cc2cc(C(F)(F)P(=O)(O)O)ccc2s1)C(=O)N1CCCCC[C@H]1C(=O)N1CC[C@@H](c2ccccc2)C1 [Compound 186, ((2-(((S)-3,3-dimethyl-1-oxo-1-((S)-2-((S)-3-phenylpyrrolidine-1-carbonyl)azepan-1-yl)butan-2-yl)carbamoyl)benzo[b]thiophen-5-yl)difluoromethyl)phosphonic acid] | > 10000 | 1 to 10
CC(C)(C)[C@H](NC(=O)c1cc2cc(C(F)(F)P(=O)(O)O)ccc2s1)C(=O)N1CCCCC[C@H]1C(=O)N1Cc2ccccc2C1 [Compound 187, (difluoro(2-(((S)-1-((S)-2-(isoindoline-2-carbonyl)azepan-1-yl)-3,3-dimethyl-1-oxobutan-2-yl)carbamoyl)benzo[b]thiophen-5-yl)methyl)phosphonic acid] | 1000 to 10000 | > 10
CC(C)(C)[C@H](NC(=O)c1cc2cc(C(F)(F)P(=O)(O)O)ccc2s1)C(=O)N1CCCCC[C@H]1C(=O)Nc1ncc(-c2ccccc2)s1 [Compound 188, ((2-(((S)-3,3-dimethyl-1-oxo-1-((S)-2-((5-phenylthiazol-2-yl)carbamoyl)azepan-1-yl)butan-2-yl)carbamoyl)benzo[b]thiophen-5-yl)difluoromethyl)phosphonic acid] | 1000 to 10000 | 0.1 to 1
CC(C)(C)[C@H](NC(=O)c1cc2cc(C(F)(F)P(=O)(O)O)ccc2s1)C(=O)N1Cc2ccccc2CC1C(=O)N1CCO[C@H](c2ccccc2)C1 (stereo partly drawn) [Compound 189, ((2-(((2S)-3,3-dimethyl-1-oxo-1-(3-((R)-2-phenylmorpholine-4-carbonyl)-3,4-dihydroisoquinolin-2(1H)-yl)butan-2-yl)carbamoyl)benzo[b]thiophen-5-yl)difluoromethyl)phosphonic acid] | 100 to 1000 | 1 to 10
CC(C)(C)[C@H](NC(=O)c1cc2cc(C(F)(F)P(=O)(O)O)ccc2s1)C(=O)N1Cc2ccccc2CC1C(=O)N1CCC[C@H](c2ccccc2)C1 (stereo partly drawn) [Compound 190, ((2-(((2S)-3,3-dimethyl-1-oxo-1-(3-((R)-3-phenylpiperidine-1-carbonyl)-3,4-dihydroisoquinolin-2(1H)-yl)butan-2-yl)carbamoyl)benzo[b]thiophen-5-yl)difluoromethyl)phosphonic acid] | 100 to 1000 | 1 to 10
CC(C)(C)[C@H](NC(=O)c1cc2cc(C(F)(F)P(=O)(O)O)ccc2s1)C(=O)N1Cc2ccccc2CC1C(=O)N1CC[C@H](c2ccccc2)C1 (stereo partly drawn) [Compound 191, ((2-(((2S)-3,3-dimethyl-1-oxo-1-(3-((R)-3-phenylpyrrolidine-1-carbonyl)-3,4-dihydroisoquinolin-2(1H)-yl)butan-2-yl)carbamoyl)benzo[b]thiophen-5-yl)difluoromethyl)phosphonic acid] | 1000 to 10000 | > 10
CC(C)(C)[C@H](NC(=O)c1cc2cc(C(F)(F)P(=O)(O)O)ccc2s1)C(=O)N1Cc2ccccc2CC1C(=O)N1CC[C@@H](c2ccccc2)C1 (stereo partly drawn) [Compound 192, ((2-(((2S)-3,3-dimethyl-1-oxo-1-(3-((S)-3-phenylpyrrolidine-1-carbonyl)-3,4-dihydroisoquinolin-2(1H)-yl)butan-2-yl)carbamoyl)benzo[b]thiophen-5-yl)difluoromethyl)phosphonic acid] | > 10000 | > 10
CC(C)(C)[C@H](NC(=O)c1cc2cc(C(F)(F)P(=O)(O)O)ccc2s1)C(=O)N1Cc2ccccc2CC1C(=O)N1Cc2ccccc2C1 (stereo partly drawn) [Compound 193, (difluoro(2-(((2S)-1-(3-(isoindoline-2-carbonyl)-3,4-dihydroisoquinolin-2(1H)-yl)-3,3-dimethyl-1-oxobutan-2-yl)carbamoyl)benzo[b]thiophen-5-yl)methyl)phosphonic acid] | > 10000 | > 10
CC(C)(C)[C@H](NC(=O)c1cc2cc(C(F)(F)P(=O)(O)O)ccc2s1)C(=O)N1Cc2ccccc2CC1C(=O)Nc1ncc(-c2ccccc2)s1 (stereo partly drawn) [Compound 194, ((2-(((2S)-3,3-dimethyl-1-oxo-1-(3-((5-phenylthiazol-2-yl)carbamoyl)-3,4-dihydroisoquinolin-2(1H)-yl)butan-2-yl)carbamoyl)benzo[b]thiophen-5-yl)difluoromethyl)phosphonic acid] | 1000 to 10000 | 0.1 to 1
CC(C)(C)[C@H](NC(=O)c1cc2cc(C(F)(F)P(=O)(O)O)ccc2s1)C(=O)N1Cc2ccccc2[C@H]1C(=O)N1CCO[C@H](c2ccccc2)C1 [Compound 195, ((2-(((S)-3,3-dimethyl-1-oxo-1-((S)-1-((R)-2-phenylmorpholine-4-carbonyl)isoindolin-2-yl)butan-2-yl)carbamoyl)benzo[b]thiophen-5-yl)difluoromethyl)phosphonic acid] | < 100 | 1 to 10
CC(C)(C)[C@H](NC(=O)c1cc2cc(C(F)(F)P(=O)(O)O)ccc2s1)C(=O)N1Cc2ccccc2[C@H]1C(=O)N1CCC[C@H](c2ccccc2)C1 [Compound 196, ((2-(((S)-3,3-dimethyl-1-oxo-1-((S)-1-((R)-3-phenylpiperidine-1-carbonyl)isoindolin-2-yl)butan-2-yl)carbamoyl)benzo[b]thiophen-5-yl)difluoromethyl)phosphonic acid] | < 100 | 1 to 10
CC(C)(C)[C@H](NC(=O)c1cc2cc(C(F)(F)P(=O)(O)O)ccc2s1)C(=O)N1Cc2ccccc2[C@H]1C(=O)N1CC[C@H](c2ccccc2)C1 [Compound 197, ((2-(((S)-3,3-dimethyl-1-oxo-1-((S)-1-((R)-3-phenylpyrrolidine-1-carbonyl)isoindolin-2-yl)butan-2-yl)carbamoyl)benzo[b]thiophen-5-yl)difluoromethyl)phosphonic acid] | 1000 to 10000 | > 10
CC(C)(C)[C@H](NC(=O)c1cc2cc(C(F)(F)P(=O)(O)O)ccc2s1)C(=O)N1Cc2ccccc2[C@H]1C(=O)N1CC[C@@H](c2ccccc2)C1 [Compound 198, ((2-(((S)-3,3-dimethyl-1-oxo-1-((S)-1-((S)-3-phenylpyrrolidine-1-carbonyl)isoindolin-2-yl)butan-2-yl)carbamoyl)benzo[b]thiophen-5-yl)difluoromethyl)phosphonic acid] | 100 to 1000 | 1 to 10
CC(C)(C)[C@H](NC(=O)c1cc2cc(C(F)(F)P(=O)(O)O)ccc2s1)C(=O)N1Cc2ccccc2[C@H]1C(=O)N1Cc2ccccc2C1 [Compound 199, (difluoro(2-(((S)-1-((S)-1-(isoindoline-2-carbonyl)isoindolin-2-yl)-3,3-dimethyl-1-oxobutan-2-yl)carbamoyl)benzo[b]thiophen-5-yl)methyl)phosphonic acid] | 1000 to 10000 | > 10
